Measured values taken from US11021478B2, “Indolizine derivatives and their application in medicine” (Kind Pharmaceutical, priority 2017, dated 2021).

What was measured:
hemoglobin in mice = test: Effect of compounds of Examples on hemoglobin in mice; format: in vivo; conditions: male C57B1/6 mice, 3 times each week for 2 weeks, 6 hours after last administration minus before first administration
Procedure: Male C57B1/6 mice of 8-10 weeks (Shanghai Slack Laboratory Animals Co., Ltd.) were administrated orally the test compounds in 30 mg/kg for 2 weeks, 3 times each week and Roxadustat (CAS: 808118-40-3) was administrated in an amount of 60 mg/kg as a positive control. Before the first administration and 6 hours after the last administration, about 30 μl of blood was taken from the mandibular vein, and the hemoglobin content was measured by Hemocue hemoglobin analyzer. The hemoglobin elevation was calculated as the value obtained by subtracting the first hemoglobin content from the hemoglobin content after the last administration.
In addition, hemoglobin elevation was also tested in the same manner for Roxadustat as a positive control. Roxadustat was purchased from Selleckchem, which was known to be a potent inhibitor of HIF prolyl hydroxylase in the art and be able to increase hemoglobin production.

[1] = target: HIF prolyl hydroxylase-2 (HIF-PHD2) (Homo sapiens (Human), UniProt Q9GZT9); test: Effect of compounds on activities of HIF prolyl hydroxylase-2 (hydroxylation of immobilized HIF-1α556-574 peptide, Eu-VBC binding, OD 450 nm); format: biochemical; conditions: HIF-PHD2, biotinyl-HIF-1α556-574 substrate; representative, relative values
HIF prolyl hydroxylase-2 (HIF-PHD2), sequence (Q9GZT9 whole entry, species assumed): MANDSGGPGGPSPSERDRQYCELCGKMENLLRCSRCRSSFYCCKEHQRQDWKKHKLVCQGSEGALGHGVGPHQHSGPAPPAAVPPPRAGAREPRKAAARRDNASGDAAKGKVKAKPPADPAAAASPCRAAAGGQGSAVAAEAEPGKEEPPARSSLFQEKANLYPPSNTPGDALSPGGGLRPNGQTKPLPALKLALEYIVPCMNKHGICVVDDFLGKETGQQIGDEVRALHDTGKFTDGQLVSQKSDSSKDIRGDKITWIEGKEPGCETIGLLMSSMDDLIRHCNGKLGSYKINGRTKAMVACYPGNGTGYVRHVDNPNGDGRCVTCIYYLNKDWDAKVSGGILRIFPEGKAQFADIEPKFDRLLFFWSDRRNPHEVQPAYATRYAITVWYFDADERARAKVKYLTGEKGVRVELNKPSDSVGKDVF

IC50 [1] [µM] | Structure (SMILES) | Hemoglobin elevation (hemoglobin in mice; oral 30 mg/kg) [g/dL] | Hemoglobin elevation (hemoglobin in mice; positive control, 60 mg/kg) [g/dL]
> 10 | CCOC(=O)CNC(=O)C1=C(O)C2(CCCC2)n2cccc2C1=O [Example 10, (6′-Hydroxy-8′-oxo-8′H-spiro[cyclopentane-1,5′-indolizine]-7′-carbonyl)glycine ethyl ester] | 1.9 | –
– | CC1(C)C(O)=C(C(=O)NCC(=O)O)C(=O)c2cccn21 [Example 4, (6-Hydroxy-5,5-dimethyl-8-oxo-5,8-dihydroindolizin-7-carbonyl) glycine] | 0.8 | –
> 10 | CCOC(=O)[C@H](C)NC(=O)C1=C(O)C2(CCCC2)n2cccc2C1=O [Example 21, (6′-Hydroxy-8′-oxo-8′H-spiro[cyclopentane-1,5′-indolizine]-7′-carbonyl)-L-alanine ethyl ester] | 1.8 | –
– | O=C(O)CNC(=O)C1=C(O)C2(CCCCCC2)n2cccc2C1=O [Example 67, (6′-Hydroxy-8′-oxo-8′H-spiro[cycloheptane-1,5′-indolizine]-7′-carbonyl)glycine] | 0.8 | –
– | O=C(O)CNC(=O)C1=C(O)C2(CC2)n2cccc2C1=O [Example 1, (6′-Hydroxy-8′-oxo-8′H-spiro[cyclopropane-1,5′-indolizine]-7′-carbonyl) glycine] | 1.0 | –
– | O=C(O)CNC(=O)C1=C(O)C2(CCCC2)n2c(ccc2-c2ccccc2)C1=O [Example 24, (6′-Hydroxy-8′-oxo-3′-phenyl-8′H-spiro[cyclopentane-1,5′-indolizine]-7′-carbonyl)glycine] | 4.0 | –
– | C[C@H](NC(=O)C1=C(O)C2(CCC2)n2cccc2C1=O)C(=O)O [Example 7, (6′-Hydroxy-8′-oxo-8′H-spiro[cyclobutane-1,5′-indolizine]-7′-carbonyl)-L-alanine] | 0.7 | –
– | O=C(O)CNC(=O)C1=C(O)C2(CCCCC2)n2cccc2C1=O [Example 13, (6′-Hydroxy-8′-oxo-8′H-spiro[cyclohexane-1,5′-indolizine]-7′-carbonyl)glycine] | 4.3 | –
– | O=C(O)CNC(=O)C1=C(O)C2(CCCC2)n2ccc(C3CC3)c2C1=O [Example 62, (1′-cyclopropyl-6′-hydroxy-8′-oxo-8′H-spiro[cyclopentane-1,5′-indolizine]-7′-carbonyl)glycine] | 0.1 | –
– | O=C(O)CNC(=O)C1=C(O)C2(CCCCC2)n2c(ccc2-c2ccccc2)C1=O [Example 35, (6′-Hydroxy-8′-oxo-3′-phenyl-8′H-spiro[cyclohexane-1,5′-indolizine]-7′-carbonyl)glycine] | 2.5 | –
> 10 | CCOC(=O)CNC(=O)C1=C(O)C2(CCCCC2)n2cccc2C1=O [Example 46, (6′-Hydroxy-8′-oxo-8′H-spiro[cyclohexane-1,5′-indolizine]-7′-carbonyl)glycine ethyl ester] | – | –
– | C[C@@H](NC(=O)C1=C(O)C2(CCCC2)n2cccc2C1=O)C(=O)O [Example 12, (6′-Hydroxy-8′-oxo-8′H-spiro[cyclopentane-1,5′-indolizine]-7′-carbonyl)-D-alanine] | 0.8 | –
– | Cc1nc(C(=O)NCC(=O)O)c(O)c2ccc(Oc3ccccc3)cc12 [Roxadustat, reference compound] | – | 1.7
– | C[C@H]1CC[C@@]2(CC1)C(O)=C(C(=O)NCC(=O)O)C(=O)c1cccn12 [Example 69, ((1,4-cis)-6′-hydroxy-4-methyl-8′-oxo-8′H-spiro[cyclohexane-1,5′-indolizine]-7′-carbonyl)glycine] | 0.7 | –
– | O=C(O)CNC(=O)C1=C(O)C2(CCC2)n2c(ccc2-c2ccccc2)C1=O [Example 39, (6′-Hydroxy-8′-oxo-3′-phenyl-8′H-spiro[cyclobutane-1,5′-indolizine]-7′-carbonyl)glycine] | 4.8 | –
– | O=C(O)CNC(=O)C1=C(O)C2(CCC2)n2cccc2C1=O [Example 6, (6′-Hydroxy-8′-oxo-8′H-spiro[cyclobutane-1,5′-indolizine]-7′-carbonyl)glycine] | 0.9 | –
> 10 | CC(C)(C)C(=O)OCOC(=O)CNC(=O)C1=C(O)C2(CCCCC2)n2cccc2C1=O [Example 22, (((6′-hydroxy-8′-oxo-8′H-spiro[cyclohexane-1,5′-indolizine]-7′-carbonyl)glycyloxy)methyl) pivalate] | – | –
– | C[C@H]1CC[C@]2(CC1)C(O)=C(C(=O)NCC(=O)O)C(=O)c1cccn12 [Example 68, ((1,4-trans)-6′-hydroxy-4-methyl-8′-oxo-8′H-spiro[cyclohexane-1,5′-indolizine]-7′-carbonyl)glycine] | 5.2 | –
– | C[C@H](NC(=O)C1=C(O)C2(CCCC2)n2cccc2C1=O)C(=O)O [Example 11, (6′-Hydroxy-8′-oxo-8′H-spiro[cyclopentane-1,5′-indolizine]-7′-carbonyl)-L-alanine] | 2.0 | –
> 10 | COC(=O)CNC(=O)C1=C(O)C2(CCCC2)n2cccc2C1=O [Example 9, (6′-Hydroxy-8′-oxo-8′H-spiro[cyclopentane-1,5′-indolizine]-7′-carbonyl)glycine methyl ester] | 2.0 | –
– | C[C@H](NC(=O)C1=C(O)C(C)(C)n2cccc2C1=O)C(=O)O [Example 5, (6-Hydroxy-5,5-dimethyl-8-oxo-5,8-dihydroindolizin-7-carbonyl)-L-alanine] | 1.0 | –
– | C[C@H](NC(=O)C1=C(O)C2(CCCCC2)n2cccc2C1=O)C(=O)O [Example 14, (6′-Hydroxy-8′-oxo-8′H-spiro[cyclohexane-1,5′-indolizine]-7′-carbonyl)-L-alanine] | 1.0 | –
– | O=C(O)CNC(=O)C1=C(O)C2(CCCC2)n2cccc2C1=O [Example 8, (6′-Hydroxy-8′-oxo-8′H-spiro[cyclopentane-1,5′-indolizine]-7′-carbonyl)glycine] | 3.1 | –
– | C[C@H](NC(=O)C1=C(O)C2(CC2)n2cccc2C1=O)C(=O)O [Example 2, (6′-Hydroxy-8′-oxo-8′H-spiro[cyclopropane-1,5′-indolizine]-7′-carbonyl)-L-alanine] | 0.6 | –
